Assay results reported in ChEMBL document CHEMBL3885861, “Open TG-GATES”.

Organism: Rattus norvegicus
Assay: Open TG-GATES - Regimen: Daily Repeat
Format: toxicity, organism-based, Sprague-Dawley
Design: regimen Daily Repeat, gender Male, age 6 weeks
Conditions: in vivo, po, route gavage; for APTT / Bas / Eos / Fbg / Hb / Ht / Lym / MCH / MCHC / MCV / Mono / Neu / Plat / RBC / Ret / WBC: tissue Blood; for KIDNEY_L / KIDNEY_R / KIDNEY_TOTAL: tissue Kidney; for ALP / ALT / AST / BUN / CRE / DBIL / GLC / IP / K / LDH / Na / PL / RALB / TBIL / TC / TG / TP / gamma-GTP: tissue Plasma
[1] = 0 mg/kg, 72 h, dose level Control, time 3 day
[2] = 0 mg/kg, […], dose level Control, time 7 day
[3] = 0 mg/kg, […], dose level Control, time 14 day
[4] = 0 mg/kg, […], dose level Control, time 28 day
[5] = 10 mg/kg, 72 h, dose level Low, time 3 day
[6] = 10 mg/kg, […], dose level Low, time 7 day
[7] = 10 mg/kg, […], dose level Low, time 14 day
[8] = 10 mg/kg, […], dose level Low, time 28 day

CN(C)CCC=C1c2ccccc2COc2ccccc21 [DOXEPIN]
TERMINAL_BW [1]: 226.4 g | APTT [1]: 17.1 s | Bas [1]: 0% | Eos [1]: 1% | Fbg [1]: 281.6 mg/dL | Hb [1]: 13.4 g/dL | Ht [1]: 38.6% | Lym [1]: 78.6% | MCH [1]: 21.4 pg | MCHC [1]: 34.7% | MCV [1]: 61.7 fL | Mono [1]: 2.8% | Neu [1]: 17% | Plat [1]: 122.6 x10_4/uL | RBC [1]: 625.6 x10_4/ul | Ret [1]: 7.8% | WBC [1]: 81.7 x10_2/uL | KIDNEY_L [1]: 1 g | KIDNEY_R [1]: 1 g | KIDNEY_TOTAL [1]: 2 g | ALP [1]: 1760.6 IU/L | ALT [1]: 46 IU/L | AST [1]: 71.2 IU/L | BUN [1]: 15.6 mg/dL | CRE [1]: 0.2 mg/dL | DBIL [1]: 0.018 mg/dL | GLC [1]: 192 mg/dL | IP [1]: 8 mg/dL | K [1]: 4.3 meq/L | LDH [1]: 71.8 IU/L | Na [1]: 140.8 meq/L | PL [1]: 143 mg/dL | RALB [1]: 2.7 g/dL | TBIL [1]: 0.036 mg/dL | TC [1]: 79.6 mg/dL | TG [1]: 91.2 mg/dL | TP [1]: 5.7 g/dL | gamma-GTP [1]: 1.4 IU/L | TERMINAL_BW [2]: 255.5 g | TERMINAL_BW [3]: 310.4 g | TERMINAL_BW [4]: 419.8 g | APTT [2]: 15.9 s | Bas [2]: 0.2% | Eos [2]: 1% | Fbg [2]: 293.2 mg/dL | Hb [2]: 13.5 g/dL | Ht [2]: 38.5% | Lym [2]: 75.4% | MCH [2]: 21.1 pg | MCHC [2]: 35.1% | MCV [2]: 60 fL | Mono [2]: 3.6% | Neu [2]: 19% | Plat [2]: 116.5 x10_4/uL | RBC [2]: 641.8 x10_4/ul | Ret [2]: 5.2% | WBC [2]: 81 x10_2/uL | APTT [3]: 16.8 s | Bas [3]: 0% | Eos [3]: 0.8% | Fbg [3]: 280.2 mg/dL | Hb [3]: 14 g/dL | Ht [3]: 40.1% | Lym [3]: 77.2% | MCH [3]: 21.3 pg | MCHC [3]: 34.8% | MCV [3]: 61.1 fL | Mono [3]: 2.8% | Neu [3]: 18.4% | Plat [3]: 116.1 x10_4/uL | RBC [3]: 657.4 x10_4/ul | Ret [3]: 4.8% | WBC [3]: 103.9 x10_2/uL | APTT [4]: 16.6 s | Bas [4]: 0% | Eos [4]: 1.2% | Fbg [4]: 278.6 mg/dL | Hb [4]: 14.7 g/dL | Ht [4]: 41.9% | Lym [4]: 74.6% | MCH [4]: 20.2 pg | MCHC [4]: 35.3% | MCV [4]: 57.3 fL | Mono [4]: 3% | Neu [4]: 20.8% | Plat [4]: 102.4 x10_4/uL | RBC [4]: 731.6 x10_4/ul | Ret [4]: 3% | WBC [4]: 78.6 x10_2/uL | KIDNEY_L [2]: 1.1 g | KIDNEY_R [2]: 1.1 g | KIDNEY_TOTAL [2]: 2.2 g | KIDNEY_L [3]: 1.2 g | KIDNEY_R [3]: 1.2 g | KIDNEY_TOTAL [3]: 2.4 g | KIDNEY_L [4]: 1.4 g | KIDNEY_R [4]: 1.4 g | KIDNEY_TOTAL [4]: 2.7 g | ALP [2]: 1795.6 IU/L | ALT [2]: 46 IU/L | AST [2]: 74.4 IU/L | BUN [2]: 18.8 mg/dL | CRE [2]: 0.2 mg/dL | DBIL [2]: 0.018 mg/dL | GLC [2]: 186.4 mg/dL | IP [2]: 7 mg/dL | K [2]: 4.2 meq/L | LDH [2]: 67.2 IU/L | Na [2]: 141.4 meq/L | PL [2]: 154 mg/dL | RALB [2]: 2.7 g/dL | TBIL [2]: 0.03 mg/dL | TC [2]: 85 mg/dL | TG [2]: 112.2 mg/dL | TP [2]: 5.8 g/dL | gamma-GTP [2]: 1.6 IU/L | ALP [3]: 1467 IU/L | ALT [3]: 42.8 IU/L | AST [3]: 67.4 IU/L | BUN [3]: 18 mg/dL | CRE [3]: 0.2 mg/dL | DBIL [3]: 0.014 mg/dL | GLC [3]: 191.6 mg/dL | IP [3]: 7 mg/dL | K [3]: 4.1 meq/L | LDH [3]: 65.6 IU/L | Na [3]: 143.4 meq/L | PL [3]: 157 mg/dL | RALB [3]: 2.7 g/dL | TBIL [3]: 0.024 mg/dL | TC [3]: 77.4 mg/dL | TG [3]: 172.8 mg/dL | TP [3]: 6 g/dL | gamma-GTP [3]: 1 IU/L | ALP [4]: 1293.8 IU/L | ALT [4]: 43.6 IU/L | AST [4]: 65.4 IU/L | BUN [4]: 17.2 mg/dL | CRE [4]: 0.2 mg/dL | DBIL [4]: 0.024 mg/dL | GLC [4]: 180.8 mg/dL | IP [4]: 6.3 mg/dL | K [4]: 3.9 meq/L | LDH [4]: 59.6 IU/L | Na [4]: 143.4 meq/L | PL [4]: 166 mg/dL | RALB [4]: 2.9 g/dL | TBIL [4]: 0.034 mg/dL | TC [4]: 80.2 mg/dL | TG [4]: 212.2 mg/dL | TP [4]: 6.4 g/dL | gamma-GTP [4]: 1 IU/L | TERMINAL_BW [5]: 218 g | APTT [5]: 16.2 s | Bas [5]: 0% | Eos [5]: 1% | Fbg [5]: 283.2 mg/dL | Hb [5]: 13.4 g/dL | Ht [5]: 39.3% | Lym [5]: 78% | MCH [5]: 21.5 pg | MCHC [5]: 34.2% | MCV [5]: 62.8 fL | Mono [5]: 2.8% | Neu [5]: 18% | Plat [5]: 107 x10_4/uL | RBC [5]: 625.6 x10_4/ul | Ret [5]: 7.4% | WBC [5]: 67.2 x10_2/uL | KIDNEY_L [5]: 0.9 g | KIDNEY_R [5]: 0.9 g | KIDNEY_TOTAL [5]: 1.9 g | ALP [5]: 1531.8 IU/L | ALT [5]: 42.2 IU/L | AST [5]: 70.8 IU/L | BUN [5]: 15.4 mg/dL | CRE [5]: 0.2 mg/dL | DBIL [5]: 0.024 mg/dL | GLC [5]: 191 mg/dL | IP [5]: 7.7 mg/dL | K [5]: 4.3 meq/L | LDH [5]: 74.2 IU/L | Na [5]: 141.6 meq/L | PL [5]: 156.8 mg/dL | RALB [5]: 2.7 g/dL | TBIL [5]: 0.044 mg/dL | TC [5]: 85.8 mg/dL | TG [5]: 100.8 mg/dL | TP [5]: 5.8 g/dL | gamma-GTP [5]: 1.4 IU/L | TERMINAL_BW [6]: 254.8 g | TERMINAL_BW [7]: 315.1 g | TERMINAL_BW [8]: 390 g | APTT [6]: 16.3 s | Bas [6]: 0% | Eos [6]: 1% | Fbg [6]: 283.4 mg/dL | Hb [6]: 13.5 g/dL | Ht [6]: 38.8% | Lym [6]: 79.8% | MCH [6]: 21.5 pg | MCHC [6]: 34.8% | MCV [6]: 61.8 fL | Mono [6]: 3% | Neu [6]: 15.6% | Plat [6]: 115.8 x10_4/uL | RBC [6]: 627.6 x10_4/ul | Ret [6]: 6% | WBC [6]: 88.3 x10_2/uL | APTT [7]: 16.8 s | Bas [7]: 0% | Eos [7]: 1.2% | Fbg [7]: 296.8 mg/dL | Hb [7]: 14.1 g/dL | Ht [7]: 40.5% | Lym [7]: 75.4% | MCH [7]: 21.5 pg | MCHC [7]: 34.7% | MCV [7]: 61.8 fL | Mono [7]: 3% | Neu [7]: 20% | Plat [7]: 106.2 x10_4/uL | RBC [7]: 656.4 x10_4/ul | Ret [7]: 4.7% | WBC [7]: 76.1 x10_2/uL | APTT [8]: 16.2 s | Bas [8]: 0% | Eos [8]: 1.4% | Fbg [8]: 283.8 mg/dL | Hb [8]: 14.6 g/dL | Ht [8]: 41.3% | Lym [8]: 81.4% | MCH [8]: 19.8 pg | MCHC [8]: 35.4% | MCV [8]: 56 fL | Mono [8]: 2% | Neu [8]: 14.6% | Plat [8]: 109.1 x10_4/uL | RBC [8]: 737.6 x10_4/ul | Ret [8]: 2.4% | WBC [8]: 71.4 x10_2/uL | KIDNEY_L [6]: 1.1 g | KIDNEY_R [6]: 1.1 g | KIDNEY_TOTAL [6]: 2.2 g | KIDNEY_L [7]: 1.2 g | KIDNEY_R [7]: 1.2 g | KIDNEY_TOTAL [7]: 2.4 g | KIDNEY_L [8]: 1.3 g | KIDNEY_R [8]: 1.3 g | KIDNEY_TOTAL [8]: 2.6 g | ALP [6]: 1775.6 IU/L | ALT [6]: 51.6 IU/L | AST [6]: 84.2 IU/L | BUN [6]: 19.2 mg/dL | CRE [6]: 0.2 mg/dL | DBIL [6]: 0.024 mg/dL | GLC [6]: 191.2 mg/dL | IP [6]: 7.5 mg/dL | K [6]: 4.3 meq/L | LDH [6]: 148.2 IU/L | Na [6]: 142 meq/L | PL [6]: 156 mg/dL | RALB [6]: 2.6 g/dL | TBIL [6]: 0.04 mg/dL | TC [6]: 81 mg/dL | TG [6]: 135.2 mg/dL | TP [6]: 5.8 g/dL | gamma-GTP [6]: 1 IU/L | ALP [7]: 1686.4 IU/L | ALT [7]: 42.2 IU/L | AST [7]: 67.6 IU/L | BUN [7]: 18.4 mg/dL | CRE [7]: 0.2 mg/dL | DBIL [7]: 0.012 mg/dL | GLC [7]: 193.4 mg/dL | IP [7]: 7.4 mg/dL | K [7]: 4.4 meq/L | LDH [7]: 70.2 IU/L | Na [7]: 142.6 meq/L | PL [7]: 150.2 mg/dL | RALB [7]: 2.7 g/dL | TBIL [7]: 0.024 mg/dL | TC [7]: 73 mg/dL | TP [7]: 6 g/dL | gamma-GTP [7]: 1.2 IU/L | ALP [8]: 1247.4 IU/L | ALT [8]: 37.8 IU/L | AST [8]: 62 IU/L | BUN [8]: 16.4 mg/dL | CRE [8]: 0.2 mg/dL | DBIL [8]: 0.02 mg/dL | GLC [8]: 173.6 mg/dL | IP [8]: 5.6 mg/dL | K [8]: 4 meq/L | LDH [8]: 53 IU/L | Na [8]: 144 meq/L | PL [8]: 147.6 mg/dL | RALB [8]: 2.8 g/dL | TBIL [8]: 0.03 mg/dL | TC [8]: 74 mg/dL | TG [8]: 154.8 mg/dL | TP [8]: 6.3 g/dL | gamma-GTP [8]: 1.2 IU/L
